Series [1] concerns the target vaccinia triad (A20, D4, E9) (Vaccinia virus (strain Western Reserve) (VACV) (Vaccinia virus (strain WR)), UniProt P06856). It is filed as biochemical.
Series [2] addresses vaccinia E9 polymerase (Vaccinia virus (strain Western Reserve) (VACV) (Vaccinia virus (strain WR)), UniProt P06856). It is filed as biochemical.
Series [3] deals with triad (A20, D4, E9) (Vaccinia virus (strain Western Reserve) (VACV) (Vaccinia virus (strain WR)), UniProt P06856). It is filed as biochemical.
The subject of series [4] is vaccinia virus. Description: microbe, parasite or virus in culture. It is filed as cell-based. Conditions: Orthopoxvirus vaccinia; for inhibition at 100 µM: BSC-1, 1 h, read-out: Inhibition of plaques.
The test system of series [5] is vaccinia virus. Format: cell-based.
A short description of another series: in vitro. Conditions: African green monkey.
Series [6] relates to BSC-1 cells. Conditions: 100 μM.
Series [7] can be described thus: aCella-TOX GAPDH release cytotoxicity assay (viridicatumtoxin study). Conditions: African green monkey, BSC-1 cells.
Series [8] deals with vaccinia virus. Description: microbe, parasite or virus in culture. Conditions: Orthopoxvirus vaccinia, BSC-1, 16 h, read-out: Plaque IC50.
For series [9], the system named is BSC-1 cells. Description: aCella-TOX GAPDH release cytotoxicity assay (viridicatumtoxin study). The note with it: cells exposed to 200 μM.
The test system of series [10] is BSC-1 cells. Description: Cell viability at plaque IC50, MTT assay. Conditions: at plaque IC50 (1.6 μM), 16 h. As for the experimental part:
(§1) The cell viability at the plaque IC50 value was performed using two independent methods, cell counting and MTT assay. For the cell counting method, cells were incubated overnight at 37° C. to sub-confluency in 48-well plates. The compounds dissolved in DMSO, were further diluted in media to a final concentration required to achieve the plaque IC50 value. The cells were incubated with the compounds for 24 hrs. The media was removed, the cells trypsinized and stained with tryphan blue, and counted. The MTT assay was also used to confirm cell viability at the plaque IC50. Cells were seeded at 1.5×10^4 cells/well in a 96-well plate and incubated overnight at 37° C. at 5% CO2. […] Each well received 20 μL of the MTT solution (5 mg MTT/mL PBS) and the plate was rocked for 5 min. The plates were incubated for an additional 5 h to metabolize MTT, after which the media was removed, and the plates were air dried. To resuspend the formazan, the end product of the MTT assay, 200 μL of DMSO was added to each well and the plates were rocked for 5-10 min. Absorbance was read at 560 nm.

The test system of series [11] is vaccinia early gene E3 mRNA. Format: cell-based, vaccinia virus.
For series [12], the system named is vaccinia virus. The note with it: African green monkey.
The test system of series [13] is vaccinia late gene F9 mRNA. Format: cell-based, vaccinia virus.
The test system of series [14] is BSC-1 cells. Put plainly: Cell viability at plaque IC50, cell counting. The note with it: at plaque IC50 (1.6 μM), 24 hrs. Here is the method:
as §1

A further series deals with vaccinia late L1 protein. Format: cell-based, vaccinia virus.
In series [15] the target is vaccinia E9 DNA polymerase (Vaccinia virus (strain Western Reserve) (VACV) (Vaccinia virus (strain WR)), UniProt P06856). Put plainly: biochemical.
The subject of series [16] is vaccinia early E3 protein. It is filed as cell-based, vaccinia virus.

“Also recorded” adds a separate entry of the source. Like-named read-outs stand apart in the source and are kept apart here.

On to `Oc1ccc(Cl)cc1Sc1cc(Cl)ccc1O` [NSC 55636, 2,2′-thiobis(4-chlorophenol)], for which the “Effect on synthesis of M13 DNA” value in [1] is “blocked by increasing concentrations”. In series [2], the “Effect on E9 polymerase activity on the uniform template” value was “prevented E9 from incorporating nucleotides on the uniform template; also recorded: inhibited the catalytic activity of E9 DNA polymerase; also recorded: blocked polymerase activity” and the “Targeted Activity (% Inhibition): Polymerase” value is listed as “Polymerase (74%)”. Besides, the “Effect on DNA synthesis by the triad on the distal template” value in series [3] is given as “also blocked the distal template”. Further, in the series on vaccinia virus [4], the inhibition at 100 µM was 95%. For the same compound, the EC50 in the series with vaccinia virus [4] (BSC-1, read-out: EC50 (concentration at which compound reduced plaques by 50%)) is 5 µM. Also, in the series with vaccinia virus [5], the “Blocking the replication of vaccinia virus in cells” value (shortened to “Blocking the replication”) is given as “effective in blocking the replication of vaccinia virus in cells”. The CC50 in the series “in vitro” is > 200 µM. Also, the “Cell Cytotoxicity” value with BSC-1 cells [6] is listed as 14%. For the same compound, the “Cell Cytotoxicity” value in the series with BSC-1 cells [6] (listed as 55636) amounted to 14%.
For the compound `CN(C)C1C(O)=C(C(N)=O)C(=O)C2(O)C(O)=C3C(=O)c4c(O)cccc4C(C)(O)C3CC12.CS(=O)(=O)O` (centres unmarked) [NSC 69343, 4-(dimethylamino)-3,6,10,12,12a-pentahydroxy-6-methyl-1,11-dioxo-1,4,4a,5,5a,6,11,12a-octahydrotetracene-2-carboxamide methanesulfonate, reference compound], the CC50 in series [7] is > 200 µM. Further, the IC50 in the series on vaccinia virus [8] is > 200 µM. The inhibition at 100 µM with vaccinia virus [4] was 40%. Also, in the series with vaccinia virus [5], the “Blocking the replication” value is on record as “effective in blocking the replication of vaccinia virus in cells”. In addition, the “Cell Cytotoxicity” value in the series with BSC-1 cells [6] (methanesulfonate) is on record as 17%.
In the case of `O=C1CSC(=S)N1/N=C/c1ccc(Cl)c([N+](=O)[O-])c1` [NSC 124808], the “Effect on synthesis of M13 DNA” value in series [1] is “blocked by increasing concentrations”. The “Effect on E9 polymerase activity on the uniform template” value in series [2] is reported as “not on the uniform template; also recorded: minimal effects”. For the same compound, in series [3], the “Effect on DNA synthesis by the triad on the distal template” value is on record as “prevented DNA synthesis by the triad on the distal template; also recorded: blocked incorporation on the distal template” and the “Targeted Activity (% Inhibition): Processivity” value is given as “Processivity (62%)”. Further, the inhibition at 100 µM with vaccinia virus [4] was 36%. Further, the “Cell Cytotoxicity” value in the series on BSC-1 cells [6] was found to be 21%.
For the compound `COc1cc(O)c2c(O)c3c(c4c2c1[C@]1(C4)C(C)=CCCC1(C)C)[C@H](O)[C@@]1(O)CC(O)=C(C(N)=O)C(=O)[C@@]1(O)C3=O` [Viridicatumtoxin, viridicatumtoxin], the “Cytotoxicity at highest exposure” value in the series on BSC-1 cells [9] is “not cytotoxic”. Further, the CC50 in series [7] was > 200 µM. The “% cell viability on plaque IC50, MTT” value in the series on BSC-1 cells [10] is listed as 83 ± 16%; in the series with BSC-1 cells [10] (listed as viridicatumtoxin), “about 85%”. The IC50 stood at 1.6 µM in the series with vaccinia virus [8] and 63 µM in series [15]. The “Early E3 mRNA production” value in series [11] was “maximum at 3 h.p.i. and dropped back to low levels by 5 h.p.i”. In addition, the “Concentration at which the cells began to detach” value in the series on vaccinia virus [12] was ≥ 100 µM. Moreover, the “Late F9 mRNA expression” value in series [13] was “only a marginal increase in F9 mRNA expression by 5 h.p.i”. For the same compound, the “% cell viability on plaque IC50, Cell count” value in the series with BSC-1 cells [14] is listed as 92 ± 23%; in the series on BSC-1 cells [14] (listed as viridicatumtoxin) it was “About 90%”. The “Late L1 protein level” value in the series with vaccinia late L1 protein is given as “significantly decreased”. In addition, in the series with vaccinia virus [5], the “Blocking the replication” value is reported as “particularly effective”. In addition, in series [16], the “Early E3 protein level” value is listed as “no significant difference in the levels of E3”.

Values taken from US9211296B2, “Therapeutic compounds for blocking DNA synthesis of POX viruses” (priority 2007, dated 2015).
